In US4994258A, “Gamma emitting, CCK-A antagonists for pancreatic imaging” (Merck & Co., Inc., priority 1990, dated 1991):

What was measured:
[1] = molecular target: T1, CCK-A receptor from rat pancreas (Rattus norvegicus, UniProt P30551); assay: In vitro binding assay, saturation studies with radioligand, rat pancreas
T1 construct: Pancreatae were removed from either rats or rabbits immediately after euthanasia; from tissue; host or cells: rat pancreas homogenate
T1 sequence (P30551 1-444): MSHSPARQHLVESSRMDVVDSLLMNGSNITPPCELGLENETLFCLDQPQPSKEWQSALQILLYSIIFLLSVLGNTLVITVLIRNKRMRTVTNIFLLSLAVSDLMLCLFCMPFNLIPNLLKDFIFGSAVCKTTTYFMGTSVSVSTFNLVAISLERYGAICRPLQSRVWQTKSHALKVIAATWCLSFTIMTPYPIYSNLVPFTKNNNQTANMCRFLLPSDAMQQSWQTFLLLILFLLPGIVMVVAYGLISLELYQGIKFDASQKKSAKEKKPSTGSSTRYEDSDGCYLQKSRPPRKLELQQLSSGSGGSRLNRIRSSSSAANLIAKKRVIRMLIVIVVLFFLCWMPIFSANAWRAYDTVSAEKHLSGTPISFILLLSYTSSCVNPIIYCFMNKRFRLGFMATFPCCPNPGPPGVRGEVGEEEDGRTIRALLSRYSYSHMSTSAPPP
Description: Pancreatae were removed from either rats or rabbits immediately after euthanasia and placed in ice-cold buffer (50 mM Tris·HCl (pH 7.4), 5 mM MgCl2, 5 mM DTT, 2 mg/ml BSA and 0.14 mg/ml bacitracin). The tissue (0.5 g pancreas) was homogenized in 200 ml of the ice-cold Tris buffer. Aliquots (0.1 ml) were added to various concentrations of radioligand (5 ml) in Tris buffer, incubated for 60 min at ambient temperatures, and filtered over GC-filters. After washing with ice cold Tris buffer (2×5 ml), the filters were air dried and counted in 10 ml of liquid scintillation cocktail (PCS, Amersham) in a Beckman LSC-5000. Data were converted to Molar concentrations and analyzed via SCAFIT, and data are presented by the method of Scatchard. The specific activity of the radioiodinated product was determined as that which provided the same concentration of receptor as obtained with the tritiated ligand.

[2] = In vivo distribution necropsy after i.v. injection; parameters: species or system rats
Description: Animals were euthanized at various times (15 min to 2 hr), and organs of interest removed for assay. Biopsy samples were counted in an autogamma counter (50% counting efficiency) for ^123 I labeled radioligand. For the tritiated radioligand, in rats and rabbits, 10 to 50 mg samples of pancreas and, in rats, several regions of CNS (cortex, interpeduncular nucleus, and substantial nigra) were solubilized in protosol® (New England Nuclear). Liquid scintillation cocktail was added and the samples were dark adapted for 16 hours, then counted in a liquid scintillation counter with automatic quench correction. Results were the average of at least five animals and were expressed as % dose/g (wet weight).

[3] = In vivo distribution after coinjection of unlabeled carboxamide (receptor-mediated binding); parameters: species or system rats; details: rat, iv
Description: (§1) Animals were euthanized at various times (15 min to 2 hr), and organs of interest removed for assay. […] […] Liquid scintillation cocktail was added and the samples were dark adapted for 16 hours, then counted in a liquid scintillation counter with automatic quench correction. Results were the average of at least five animals and were expressed as % dose/g (wet weight).

[4] = system: CCK-A receptors; assay: as above; parameters: species or system rats; details: rats
Description: as §1

[5] = system: CCK-A receptors; parameters: species or system rats; details: rat, in vivo, iv
Description: Rats under ketamine/acepromazine anesthesia were positioned for either anterior or posterior dynamic (128×128×16) images. A large-field-of-view gamma camera with a low energy, all purpose collimator, peaked for ^123 I, was utilized. Thirty one-minute images were acquired immediately post intravenous administration of 0.2 mCi of [^123 I]3(S)-1,3-dihydro-3-(4-iodobenzoylamino)-1-methyl -5-phenyl-2H-1,4-benzodiazepin-2-one. To enable visualization of the liver alone, an unblocked rat was injected with 0.125 mCi of ^99m Tc-albumin colloid. A static one-minute image (128×128×16) was obtained then, without moving the animal, the dose of [^123 I]3(S)-1,3-dihydro-3-(4-iodobenzoylamino) -1-methyl-5-phenyl-2H-1,4-benzodiazepin-2-one was injected and imaging proceeded as described. Rabbits and African green monkeys under ketamine/ xylazine anesthesia were positioned for an anterior view and imaged as the rats were after an intravenous injection of 0.5 mCi of [^123 I] (S)-1,3-dihydro-3-(4-iodobenzoylamino) -1-methyl-5-phenyl-2H-1,4-benzodiazepin-2-one for rabbits, and 1.3 mCi for monkeys.
All blocked studies utilized a coinjection of 1 mg/kg of (R)-N-(2,3-dihydro-1-methyl-2-oxo-5-phenyl-1H-1, 4-benzodiazepin-3-yl)-1H-indole-2-carboxamide. […] Reduced data were expressed as count rates in regions of interest (ROI) as a function of time.

In the case of `CN1C(=O)[C@@H](NC(=O)c2ccc([123I])cc2)N=C(c2ccccc2)c2ccccc21` [[^123 I]3(S)-1,3-Dihydro-3-(4-iodobenzoylamino)-1-methyl-5-phenyl-2 H-1,4-benzodiazepin-2-one], the “affinity for the CCK-A receptor relative to [^3 H](R)-N-(2,3 dihydro-1-methyl-2-oxo-5-phenyl-1H-1,4-benzodiazepin-3-yl)-1H-indole-2-carboxamide (fold lower)” value [1] is reported as 3 -fold lower, the tissue uptake at 0.5 h ([2]; rat, blood, iv, 10 uCi, blood, 30 min post-i.v. injection of 10 μCi, 95% confidence intervals (Table 4), read-out: % DOSE/GRAM, Blood) is reported as 0.307 ± 0.051 %ID/g and the tissue uptake at 0.5 h ([2]; rat, descending colon, iv, 10 uCi, descending colon, 30 min post-i.v. injection of 10 μCi, 95% confidence intervals (Table 4), read-out: % DOSE/GRAM, Descending Colon) is reported as 0.418 ± 0.073 %ID/g. The tissue uptake at 0.5 h ([2]; rat, liver, iv, 10 uCi, liver, 30 min post-i.v. injection of 10 μCi, 95% confidence intervals (Table 4), read-out: % DOSE/GRAM, Liver) was 1.96 ± 0.56 %ID/g, the tissue uptake at 0.5 h ([2]; rat, muscle, iv, 10 uCi, muscle, 30 min post-i.v. injection of 10 μCi, 95% confidence intervals (Table 4), read-out: % DOSE/GRAM, Muscle) was 0.319 ± 0.086 %ID/g and the tissue uptake at 0.25 h ([2]; rat, pancreas, iv, 10 uCi, pancreas, 15 min, i.v. injection, error range 95% confidence intervals (Table 2), read-out: % DOSE/GRAM in rat pancreas) was 2.07 ± 0.46 %ID/g. For the same molecule, the tissue uptake at 0.5 h ([2]; rat, pancreas, iv, 10 uCi, pancreas, 30 min, i.v. injection, error range 95% confidence intervals (Table 2), read-out: % DOSE/GRAM in rat pancreas) was 1.9 ± 0.71 %ID/g, the tissue uptake at 0.5 h ([2]; rat, pancreas, iv, 10 uCi, pancreas, 30 min post-i.v. injection of 10 μCi, 95% confidence intervals (Table 4), read-out: % DOSE/GRAM, Pancreas) was 2.54 ± 0.93 %ID/g and the tissue uptake at 1 h ([2]; rat, pancreas, iv, 10 uCi, pancreas, 60 min, i.v. injection, error range 95% confidence intervals (Table 2), read-out: % DOSE/GRAM in rat pancreas) was 1.14 ± 0.13 %ID/g. For the same molecule, the tissue uptake at 0.5 h ([2]; rat, pyloric sphincter, iv, 10 uCi, P. Sphincter (pyloric), 30 min post-i.v. injection of 10 μCi, 95% confidence intervals (Table 4), read-out: % DOSE/GRAM, P. Sphincter) was 1.25 ± 0.33 %ID/g, the tissue uptake at 0.5 h ([2]; rat, sigmoidal colon, iv, 10 uCi, sigmoidal colon, 30 min post-i.v. injection of 10 μCi, 95% confidence intervals (Table 4), read-out: % DOSE/GRAM, Sigmoidal Colon) was 0.5 ± 0.13 %ID/g and the tissue uptake at 0.5 h ([2]; rat, transverse colon, iv, 10 uCi, transverse colon, 30 min post-i.v. injection of 10 μCi, 95% confidence intervals (Table 4), read-out: % DOSE/GRAM, Transverse Colon) was 0.5 ± 0.18 %ID/g. The “ratio of activity in the pancreas to that in the blood and liver” value ([2]; rats) was “suggests sufficient localization to provide in vivo images of the pancreas”, the tissue uptake at 0.5 h ([3]; blood, 0.4 mg/kg, blood, 30 min post-i.v. coinjection of 10 μCi with 0.4 mg/kg (R)-indole-2-carboxamide, 95% confidence intervals (Table 5), read-out: % DOSE/GRAM, Blood, coinjection) was 0.236 ± 0.03 %ID/g and the tissue uptake at 0.5 h ([3]; P. Sphincter (pyloric), 30 min post-i.v. coinjection of 10 μCi with 0.4 mg/kg (R)-indole-2-carboxamide, 95% confidence intervals (Table 5), read-out: % DOSE/GRAM, P. Sphincter, coinjection) was 0.705 ± 0.19 %ID/g. The tissue uptake at 0.5 h ([3]; descending colon, 30 min post-i.v. coinjection of 10 μCi with 0.4 mg/kg (R)-indole-2-carboxamide, 95% confidence intervals (Table 5), read-out: % DOSE/GRAM, Descending Colon, coinjection) was 0.434 ± 0.12 %ID/g, the tissue uptake at 0.5 h ([3]; sigmoidal colon, 30 min post-i.v. coinjection of 10 μCi with 0.4 mg/kg (R)-indole-2-carboxamide, 95% confidence intervals (Table 5), read-out: % DOSE/GRAM, Sigmoidal Colon, coinjection) was 0.6 ± 0.47 %ID/g and the tissue uptake at 0.5 h ([3]; transverse colon, 30 min post-i.v. coinjection of 10 μCi with 0.4 mg/kg (R)-indole-2-carboxamide, 95% confidence intervals (Table 5), read-out: % DOSE/GRAM, Transverse Colon, coinjection) was 0.384 ± 0.06 %ID/g. The tissue uptake at 0.5 h ([3]; liver, 0.4 mg/kg, liver, 30 min post-i.v. coinjection of 10 μCi with 0.4 mg/kg (R)-indole-2-carboxamide, 95% confidence intervals (Table 5), read-out: % DOSE/GRAM, Liver, coinjection) was 1.69 ± 0.39 %ID/g, the tissue uptake at 0.5 h ([3]; muscle, 0.4 mg/kg, muscle, 30 min post-i.v. coinjection of 10 μCi with 0.4 mg/kg (R)-indole-2-carboxamide, 95% confidence intervals (Table 5), read-out: % DOSE/GRAM, Muscle, coinjection) was 0.271 ± 0.04 %ID/g and the tissue uptake at 0.25 h ([3]; pancreas, 0.4 mg/kg, pancreas, 15 min, i.v. coinjection with 0.4 mg/kg (R)-indole-2-carboxamide, 95% confidence intervals (Table 3), read-out: % DOSE/GRAM in rat pancreas, coinjection) was 0.574 ± 0.065 %ID/g. The tissue uptake at 0.5 h ([3]; pancreas, 0.4 mg/kg, pancreas, 30 min, i.v. coinjection with 0.4 mg/kg (R)-indole-2-carboxamide, 95% confidence intervals (Table 3), read-out: % DOSE/GRAM in rat pancreas, coinjection) was 0.727 ± 0.18 %ID/g, the tissue uptake at 0.5 h ([3]; pancreas, 0.4 mg/kg, pancreas, 30 min post-i.v. coinjection of 10 μCi with 0.4 mg/kg (R)-indole-2-carboxamide, 95% confidence intervals (Table 5), read-out: % DOSE/GRAM, Pancreas, coinjection) was 0.9 ± 0.22 %ID/g and the tissue uptake at 1 h ([3]; pancreas, 0.4 mg/kg, pancreas, 60 min, i.v. coinjection with 0.4 mg/kg (R)-indole-2-carboxamide, 95% confidence intervals (Table 3), read-out: % DOSE/GRAM in rat pancreas, coinjection) was 0.472 ± 0.085 %ID/g. The “specific localization in the region of the pyloric sphincter” value [4] was “specific localization is obtained in the region of the pyloric sphincter”, the “blockade of localization in the duodenum and colon” value ([4]; duodenum and colon) was “significant blockade of localization was not demonstrated” and the “localization in the pancreas (imaging and biopsied samples)” value [5] was “did localize in the pancreas by a receptor-mediated mechanism”.
